Literature values as cited in patent US9364476B2, “Methods of treating a Bruton's Tyrosine Kinase disease or disorder” (Celgene Avilomics Research, Inc., priority 2011, dated 2016).

What was measured:
[1] = biological target: Btk (Homo sapiens, UniProt Q06187); details: enzymatic and cellular assays; cited from earlier work
[2] = system: B-cell; details: cited from earlier work

Sequence of Btk (Q06187 whole entry, species assumed): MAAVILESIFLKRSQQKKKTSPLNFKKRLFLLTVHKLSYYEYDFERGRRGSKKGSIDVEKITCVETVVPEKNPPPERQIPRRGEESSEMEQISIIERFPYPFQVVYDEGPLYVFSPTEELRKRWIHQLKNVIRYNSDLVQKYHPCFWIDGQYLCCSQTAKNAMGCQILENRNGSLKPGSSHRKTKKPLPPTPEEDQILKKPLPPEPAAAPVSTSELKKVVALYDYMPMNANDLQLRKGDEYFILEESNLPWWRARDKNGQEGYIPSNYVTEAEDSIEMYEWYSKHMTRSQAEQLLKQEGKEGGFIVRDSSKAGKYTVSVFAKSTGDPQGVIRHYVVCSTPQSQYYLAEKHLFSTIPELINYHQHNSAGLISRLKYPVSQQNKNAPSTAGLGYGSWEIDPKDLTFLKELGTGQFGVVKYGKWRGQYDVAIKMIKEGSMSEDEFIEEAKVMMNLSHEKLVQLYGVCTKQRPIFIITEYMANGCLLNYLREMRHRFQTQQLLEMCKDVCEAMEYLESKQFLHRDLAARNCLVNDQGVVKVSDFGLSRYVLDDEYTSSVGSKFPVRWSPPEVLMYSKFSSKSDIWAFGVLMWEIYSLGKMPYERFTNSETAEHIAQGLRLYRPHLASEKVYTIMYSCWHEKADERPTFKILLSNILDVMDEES

**Q.** For `C=CC(=O)Nc1cccc(Nc2nc(Nc3ccc(OCCOC)cc3)ncc2F)c1` [Compound 1, N-(3-(5-fluoro-2-(4-(2-methoxyethoxy)phenylamino)pyrimidin-4-ylamino)phenyl)acrylamide], which “mode of BTK inhibition” value [1] is on record?
**A.** The value was “covalent, irreversible inhibition of BTK”.

**Q.** And the “effect on B-cell proliferation and activation” value [2]?
**A.** The value was “inhibit B-cell proliferation and activation”.
